Activity calls are given as the source filed them. The rule behind the calls is not given here.
Experiments:
[1] = Cytotoxicity against rat PC-12 cells measured after 24 hrs by MTT assay; format: toxicity, cell-based
[2] = Cytotoxicity against human A-431 cells measured after 24 hrs by MTT assay; format: toxicity, cell-based
[3] = Cytotoxicity against human HeLa cells measured after 24 hrs by MTT assay; format: toxicity, cell-based
[4] = Cytotoxicity against CHO cells measured after 24 hrs by MTT assay; format: toxicity, cell-based, Cricetulus griseus; conditions: Chinese hamster
A-431 [5] = test: Antimigratory activity in human A-431 cells assessed as inhibition of scratch at 50 uM measured after 24 hrs by Wound healing assay; format: functional
[6] = Cytotoxicity against mouse Neuro2a cells measured after 24 hrs by MTT assay; format: toxicity, cell-based, N2a
A-431 [7] = test: Inhibition of cell invasion in human A-431 cells assessed as inhibition rate at 50 uM incubated for 24 hrs by crystal violet staining based transwell assay; format: functional
Mus musculus [8] = test: Effect on IL-2 expression in C57BL/6 mouse transfected with mouse B16-Luc cells assessed as serum […] level at 5 mg/kg, ip qd treated for 7 days by ELISA; format: functional, organism-based; conditions: time 7.0 day
Mus musculus [9] = test: Effect on IL-2 expression in C57BL/6 mouse transfected with mouse B16-Luc cells assessed as serum IL-2 level at 5 mg/kg, ip qd treated for 7 days by ELISA; format: functional, organism-based; conditions: time 7.0 day
Mus musculus [10] = test: Effect on IL-2 expression in C57BL/6 mouse transfected with mouse B16-Luc cells assessed as serum IgG level at 5 mg/kg, ip qd treated for 7 days by ELISA; format: functional, organism-based; conditions: time 7.0 day

CCCCCCCCCCCCC/C=C/[C@@H](O)[C@H](CO[C@@H]1O[C@H](CO)[C@@H](O[C@@H]2O[C@H](CO)[C@H](O)[C@H](O[C@]3(C(=O)O)C[C@H](O)[C@@H](NC(=O)c4ccc(C=O)cc4)[C@H]([C@H](O)[C@H](O)CO)O3)[C@H]2O)[C@H](O)[C@H]1O)NC(=O)CCCCCCCCCCCCCCCCC
IC50 at 24 h [1]: > 200 µM
IC50 at 24 h [2]: > 200 µM
IC50 at 24 h [3]: > 200 µM
IC50 at 24 h [4]: > 200 µM
Activity (A-431 [5]): Active
IC50 at 24 h [6]: > 200 µM

CCCCCCCCCCCCC/C=C/[C@@H](O)[C@H](CO[C@@H]1O[C@H](CO)[C@@H](O[C@@H]2O[C@H](CO)[C@H](O)[C@H](O[C@]3(C(=O)O)C[C@H](O)[C@@H](NC(=O)c4cccc(F)c4)[C@H]([C@H](O)[C@H](O)CO)O3)[C@H]2O)[C@H](O)[C@H]1O)NC(=O)CCCCCCCCCCCCCCCCC
IC50 at 24 h [1]: > 200 µM
inhibition at 50 µM (A-431 [7]): 27.8%
IC50 at 24 h [2]: > 200 µM
IC50 at 24 h [3]: > 200 µM
IC50 at 24 h [4]: > 200 µM
Activity (A-431 [5]): Active
IC50 at 24 h [6]: > 200 µM

CCCCCCCCCCCCC/C=C/[C@@H](O)[C@H](CO[C@@H]1O[C@H](CO)[C@@H](O[C@@H]2O[C@H](CO)[C@H](O)[C@H](O[C@]3(C(=O)O)C[C@H](O)[C@@H](NC(C)=O)[C@H]([C@H](O)[C@H](O)CO)O3)[C@H]2O)[C@H](O)[C@H]1O)NC(=O)CCCCCCCCCCCCCCCCC
Activity (Mus musculus [8]): inactive
Activity (Mus musculus [9]): inactive
Activity (Mus musculus [10]): inactive
